Several values for one entry are separate records, joined by “and”; a condition that tells them apart may be missing. Identical values can stand only once.
Test system: advanced solid tumors
Test: Clinical activity by RECIST v1.1 (ORR, DoR, PFS, OS), phase 1b
Type: in vivo, human
Procedure: Clinical activity was assessed by objective response rate (ORR) according to Response Evaluation Criteria In Solid Tumors (RECIST) v1.1. Additional endpoints included duration of response (DoR), progression-free survival (PFS) and overall survival (OS) in phase 1b cohorts of patients based on diagnosis and tumor molecular alterations. An exploratory post-hoc analysis of patients with non-squamous NSCLC who experienced disease progression on prior checkpoint inhibitor (CPI) therapy was performed.
Disease status was evaluated according to RECIST v1.1 at baseline and every three cycles in phase 1, and every two cycles (6-week intervals) in phase 1b. Assessments were performed until objective disease progression was documented or until subsequent anti-cancer therapy started (see Supplementary Information [Sect. 1.3] for details).
DoR, PFS and OS were reported descriptively and summarized using the Kaplan–Meier method. DoR was defined as the time from first documentation of objective tumor response (complete response [CR] or partial response [PR]) until first documentation of disease progression per RECIST 1.1 or death (any cause). PFS was defined as the time from first dose of study treatment until progressive disease as defined by RECIST 1.1 or death (any cause). OS was defined as the time from first dose of study treatment until death (any cause).

[1] = NSCLC with molecular alterations (n = 53)
[2] = non-squamous NSCLC with prior CPI experience (n = 24)
[3] = phase 1b Chr4q12 amplification (n=16)
[4] = phase 1b NSCLC KIF5B-RET (n=13)
[5] = phase 1b NSCLC RET rearrangement (n=23)
[6] = phase 1b all molecular alterations (n=113)
[7] = phase 1b mITT overall (n = 161)
[8] = phase 1b overall RET rearrangement (n=31)

## COCCNCc1ccc(-c2cc3nccc(Oc4ccc(NC(=O)C5(C(=O)Nc6ccc(F)cc6)CC5)cc4F)c3s2)nc1 [sitravatinib, Sitravatinib]
NSCLC with a molecular alteration of interest
  ORR: 13.2%
[1]
  CR: 0 n (%)
  DoR 6-month KM estimate (95% CI): 28.6 (4.1, 61.2) %
  DoR median (95% CI): 3.0 (1.8, 10.2) months
  NE (non-evaluable): 8 (15.1) n (%)
  ORR: 7 (13.2) n (%)
  OS 12-month KM estimate (95% CI): 47.6 (32.4, 61.3) %
  OS median (95% CI): 11.6 (6.6, 18.2) months
  PD (progressive disease): 8 (15.1) n (%)
  PFS 6-month KM estimate (95% CI): 32.2 (19.2, 46.0) %
  PFS median (95% CI): 4.3 (2.9, 5.7) months
  PR: 7 (13.2) n (%)
non-squamous NSCLC with prior CPI experience (exploratory)
  ORR: 4.2%
[2]
  CR: 0 n (%)
  DoR 6-month KM estimate (95% CI): 100 (100, 100) %
  DoR median (95% CI): 10.2 (NE, NE) months
  NE (non-evaluable): 6 (25.0) n (%)
  ORR: 1 (4.2) n (%)
  OS 12-month KM estimate (95% CI): 36.8 (16.5, 57.5) %
  OS median (95% CI): 5.2 (2.4, 33.8) months
  PD (progressive disease): 5 (20.8) n (%)
  PFS 6-month KM estimate (95% CI): 24.8 (7.8, 46.6) %
  PFS median (95% CI): 2.9 (1.5, 4.9) months
  PR: 1 (4.2) n (%)
Overall phase 1b mITT population
  ORR: 11.8%
Phase 1b AXL alteration (n=7)
  CR: 0 n (%)
  NE: 0 n (%)
  ORR: 1 (14.3) n (%)
  OS 12-month KM estimate (95% CI): 26.8 (1.3, 67.0) %
  OS median (95% CI): 10.0 (2.2, NE) months
  PD (progressive disease): 2 (28.6) n (%)
  PFS 6-month KM estimate (95% CI): 71.4 (25.8, 92.0) %
  PFS median (95% CI): NR (1.2, NE)
  PR: 1 (14.3) n (%)
Phase 1b CBL alteration (n=31)
  CR: 0 n (%)
  DoR 6-month KM estimate (95% CI): 50.0 (0.6, 91.0) %
  DoR median (95% CI): NR (4.3, NE)
  NE: 9 (29.0) n (%)
  ORR: 2 (6.5) n (%)
  OS 12-month KM estimate (95% CI): 20.2 (7.4, 37.3) %
  OS median (95% CI): 5.0 (3.2, 9.9) months
  PD (progressive disease): 9 (29.0) n (%)
  PFS 6-month KM estimate (95% CI): 12.3 (3.1, 28.3) %
  PFS median (95% CI): 2.0 (1.3, 4.1) months
  PR: 2 (6.5) n (%)
Phase 1b CRPC (n=10)
  CR: 0 n (%)
  NE: 3 (30.0) n (%)
  ORR: 0 n (%)
  OS 12-month KM estimate (95% CI): 18.2 (0.8, 54.5) %
  OS median (95% CI): 10.1 (2.8, 23.2) months
  PD (progressive disease): 1 (10.0) n (%)
  PFS 6-month KM estimate (95% CI): 50.0 (11.1, 80.4) %
  PFS median (95% CI): 5.8 (2.1, NE) months
  PR: 0 n (%)
[3]
  CR: 0 n (%)
  NE: 4 (25.0) n (%)
  ORR: 0 n (%)
  OS 12-month KM estimate (95% CI): 35.2 (13.3, 58.2) %
  OS median (95% CI): 9.5 (3.6, 18.1) months
  PD (progressive disease): 3 (18.8) n (%)
  PFS 6-month KM estimate (95% CI): 23.8 (5.8, 48.5) %
  PFS median (95% CI): 2.7 (1.3, 4.4) months
  PR: 0 n (%)
Phase 1b MET alteration (n=17)
  CR: 0 n (%)
  DoR median (95% CI): NR (3.0, NE)
  NE: 3 (17.6) n (%)
  ORR: 2 (11.8) n (%)
  OS 12-month KM estimate (95% CI): 27.1 (8.4, 50.2) %
  OS median (95% CI): 7.3 (3.5, 13.9) months
  PD (progressive disease): 2 (11.8) n (%)
  PFS 6-month KM estimate (95% CI): 16.4 (2.8, 40.0) %
  PFS median (95% CI): 2.9 (1.9, 4.3) months
  PR: 2 (11.8) n (%)
[4]
  CR: 0 n (%)
  DoR 6-month KM estimate (95% CI): 100.0 (100.0, 100.0) %
  DoR median (95% CI): 10.2 (NE, NE) months
  NE: 3 (23.1) n (%)
  ORR: 1 (7.7) n (%)
  OS 12-month KM estimate (95% CI): 79.5 (39.3, 94.5) %
  OS median (95% CI): 27.2 (10.9, 33.8) months
  PD (progressive disease): 3 (23.1) n (%)
  PFS 6-month KM estimate (95% CI): 36.4 (11.2, 62.7) %
  PFS median (95% CI): 5.7 (1.5, 13.5) months
  PR: 1 (7.7) n (%)
[5]
  CR: 0 n (%)
  DoR 6-month KM estimate (95% CI): 25.0 (0.9, 66.5) %
  DoR median (95% CI): 2.3 (1.8, 10.2) months
  NE: 3 (13.0) n (%)
  ORR: 4 (17.4) n (%)
  OS 12-month KM estimate (95% CI): 73.2 (46.6, 88.1) %
  OS median (95% CI): 27.2 (10.9, NE) months
  PD (progressive disease): 3 (13.0) n (%)
  PFS 6-month KM estimate (95% CI): 40.3 (19.5, 60.4) %
  PFS median (95% CI): 5.7 (3.0, 13.5) months
  PR: 4 (17.4) n (%)
Phase 1b RCC (n=38)
  CR: 0 n (%)
  DoR 6-month KM estimate (95% CI): 100.0 (100.0, 100.0) %
  DoR median (95% CI): 13.2 (6.8, NE) months
  NE: 3 (7.9) n (%)
  ORR: 8 (21.1) n (%)
  OS 12-month KM estimate (95% CI): 60.1 (41.3, 74.6) %
  OS median (95% CI): 29.3 (10.8, 33.4) months
  PD (progressive disease): 4 (10.5) n (%)
  PFS 6-month KM estimate (95% CI): 62.6 (43.5, 76.9) %
  PFS median (95% CI): 9.5 (4.3, 11.7) months
  PR: 8 (21.1) n (%)
[6]
  CR: 0 n (%)
  DoR 6-month KM estimate (95% CI): 53.0 (20.9, 77.3) %
  DoR median (95% CI): 7.0 (1.9, 15.2) months
  ORR: 11 (9.7) n (%)
  OS 12-month KM estimate (95% CI): 36.1 (26.3, 45.9) %
  OS median (95% CI): 9.9 (7.1, 10.9) months
  PD (progressive disease): 23 (20.4) n (%)
  PFS 6-month KM estimate (95% CI): 28.5 (19.6, 38.0) %
  PFS median (95% CI): 3.6 (2.7, 4.4) months
  PR: 11 (9.7) n (%)
[7]
  CR: 0 n (%)
  DoR 6-month KM estimate (95% CI): 71.3% and 71.3 (44.0, 87.0) %
  DoR median (95% CI): 8.2 months and 8.2 (4.3, 16.6) months
  NE (non-evaluable): 26 (16.1) n (%)
  ORR: 19 (11.8) n (%)
  OS 12-month KM estimate (95% CI): 41.3% and 41.3 (32.7, 49.6) %
  OS median (95% CI): 10.7 months and 10.7 (9.9, 11.9) months
  PD (progressive disease): 28 (17.4) n (%)
  PFS 6-month KM estimate (95% CI): 37.5% and 37.5 (29.2, 45.9) %
  PFS median (95% CI): 4.3 months and 4.3 (3.1, 5.6) months
  PR: 19 (11.8) n (%)
[8]
  CR: 0 n (%)
  DoR 6-month KM estimate (95% CI): 40.0 (5.2, 75.3) %
  DoR median (95% CI): 2.8 (1.8, 10.2) months
  NE: 3 (9.7) n (%)
  ORR: 5 (16.1) n (%)
  OS 12-month KM estimate (95% CI): 66.5 (43.3, 82.0) %
  OS median (95% CI): 18.2 (10.9, 33.8) months
  PD (progressive disease): 5 (16.1) n (%)
  PFS 6-month KM estimate (95% CI): 39.5 (21.8, 56.7) %
  PFS median (95% CI): 5.3 (3.0, 6.7) months
  PR: 5 (16.1) n (%)
